From US20070105864A1, “Methods for inhibiting protein kinases” (Schering Corporation, priority 2005, published 2007)
Read-outs that look alike come from different tables or passages of the source.

What was measured:
recombinant His-CHK1 = molecular target: T1, recombinant His-CHK1 (Homo sapiens, UniProt O14757); experiment: CHK1 SPA Assay; format: biochemical; conditions: read-out: CHK-1 IC50
T1 construct: His-CHK1, In House Lot P976, MW ˜30 KDa, stored at −80 °C; fused on or other part: His tag
T1 sequence (O14757 1-265 limits assumed): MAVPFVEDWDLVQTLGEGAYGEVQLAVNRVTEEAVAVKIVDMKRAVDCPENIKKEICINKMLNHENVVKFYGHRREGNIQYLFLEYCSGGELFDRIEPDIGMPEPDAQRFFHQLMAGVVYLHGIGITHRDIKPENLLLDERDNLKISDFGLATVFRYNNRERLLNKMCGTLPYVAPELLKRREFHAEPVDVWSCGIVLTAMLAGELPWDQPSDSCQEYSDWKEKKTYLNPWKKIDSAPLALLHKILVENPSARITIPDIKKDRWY
Experimental: An in vitro assay was developed that utilizes recombinant His-CHK1 expressed in the baculovirus expression system as an enzyme source and a biotinylated peptide based on CDC25C as substrate (biotin-[…]).
1) CDC25C Ser 216 C-term Biotinylated peptide substrate (25 mg), stored at −20 °C, Custom Synthesis by Research Genetics: biotin-[…] 2595.4 MW
2) His-CHK1 In House lot P976, 235 ug/mL, stored at −80 °C.
1) Kinase Buffer: 50 mM Tris pH 8.0; 10 mM MgCl2; 1 mM DTT
2) His-CHK1, In House Lot P976, MW ˜30 KDa, stored at −80 °C. […] For 1 plate (100 r×n): dilute 8 μL of 235 μg/mL (7.83 uM) stock in 2 mL Kinase Buffer. This makes a 31 nM mixture. Add 20 μL/well. This makes a final reaction concentration of 6 nM.
3) CDC25C Biotinylated peptide.
Dilute CDC25C to 1 mg/mL (385 uM) stock and store at −20° C. For 1 plate (100 r×n): dilute 10 1L of 1 mg/mL peptide stock in 2 ml Kinase Buffer. This gives a 1.925 μM mix. Add 20 1L/r×n. This makes a final reaction concentration of 385 nM.
For 1 plate (100 r×n): dilute 10 μL of 1 mM ATP (cold) stock and 2 uL fresh P33-ATP (20 μCi) in 5 ml Kinase Buffer. This gives a 2 μM ATP (cold) solution; add 50 μl/well to start the reaction. Final volume is 100 μl/r×n so the final reaction concentrations will be 1 μM ATP (cold) and 0.2 uCi/r×n.
For 1 plate add: To 10 mL Wash Buffer 2 (2M NaCl 1% H3PO4): 1 mL SPA bead slurry (50 mg); Add 100 μL/well
6) Wash buffer 1: 2 M NaCl
7) Wash buffer 2: 2 M NaCl, 1% H3PO4
Dispense 10 μl/r×n to appropriate wells. Add 10 μL 10% DMSO to positive (CHK1+CDC25C+ATP) and negative (CHK1+ATP only) control wells. 2) Thaw enzyme on ice—dilute enzyme to proper concentration in kinase buffer (see Reaction Mixtures) and dispense 20 μl to each well. 3) Thaw the Biotinylated substrate on ice and dilute in kinase buffer (see Reaction Mixtures). Add 20 μL/well except to negative control wells. Instead, add 20 uL Kinase Buffer to these wells. 4) Dilute ATP (cold) and P33-ATP in kinase buffer (see Reaction Mixtures). Add 50 μL/well to start the reaction. 5) Allow the reaction to run for 2 hours at room temperature. 6) Stop reaction by adding 100 uL of the SPA beads/stop solution (see Reaction Mixtures) and leave to incubate for 15 minutes before harvest 7) Place a blank Packard GF/B filter plate into the vacuum filter device (Packard plate harvester) and aspirate […] water through to wet the system. 8) Take out the blank and put in the Packard GF/B filter plate. 9) Aspirate the reaction through the filter plate. 10) Wash: 200 ml each wash; 1× with 2M NaCl; 1× with 2M NaCl/1% H3PO4 11) Allow filter plate to dry 15 min. 12) Put TopSeal-A adhesive on top of filter plate. 13) Run filter plate in Top Count
Settings: • Data mode: CPM • Radio nuclide: Manual SPA:P33 • Scintillator: Liq/plast • Energy Range: Low
(§1) IC50 DETERMINATIONS: Dose-response curves were plotted from inhibition data generated, each in duplicate, from 8 point serial dilutions of inhibitory compounds. Concentration of compound was plotted against % kinase activity, calculated by CPM of treated samples divided by CPM of untreated samples. To generate IC50 values, the dose-response curves were then fitted to a standard sigmoidal curve and IC50 values were derived by nonlinear regression analysis.

Cyclin E/CDK2 = molecular target: T2, Cyclin E/CDK2 (Homo sapiens, UniProt P24941); experiment: CDK2 Assay (Cyclin E/CDK2 in vitro kinase assay); format: biochemical
T2 construct: made in house; host or cells: SF9 cells (baculovirus co-infection)
Text: BACULOVIRUS CONSTRUCTIONS: Cyclin E was cloned into pVL1393 (Pharmingen, La Jolla, Calif.) by PCR, with the addition of 5 histidine residues at the amino-terminal end to allow purification on nickel resin. The expressed protein was approximately 45 kDa. CDK2 was cloned into pVL1393 by PCR, with the addition of a haemaglutinin epitope tag at the carboxy-terminal end (YDVPDYAS). The expressed protein was approximately 34 kDa in size.
ENZYME PRODUCTION: Recombinant baculoviruses expressing cyclin E and CDK2 were co-infected into SF9 cells at an equal multiplicity of infection (MOI=5), for 48 hrs. Cells were harvested by centrifugation at 1000 RPM for 10 minutes, then pellets lysed on ice for 30 minutes in five times the pellet volume of lysis buffer containing 50 mM Tris pH 8.0, 1 50 mM NaCl, 1% NP40, 1 mM DTT and protease inhibitors (Roche Diagnostics GmbH, Mannheim, Germany). Lysates were spun down at 15000 RPM for 10 minutes and the supernatant retained. 5 ml of nickel beads (for one liter of SF9 cells) were washed three times in lysis buffer (Qiagen GmbH, Germany). Imidazole was added to the baculovirus supernatant to a final concentration of 20 mM, then incubated with the nickel beads for 45 minutes at 4° C. Proteins were eluted with lysis buffer containing 250 mM imidazole. Eluate was dialyzed overnight in 2 liters of kinase buffer containing 50 mM Tris pH 8.0, 1 mM DTT, 10 mM MgCl2, 100 uM sodium orthovanadate and 20% glycerol. Enzyme was stored in aliquots at −70° C.
IN VITRO KINASE ASSAY: Cyclin E/CDK2 kinase assays were performed in low protein binding 96-well plates (Corning Inc, Corning, N.Y.). Enzyme was diluted to a final concentration of 50 μg/ml in kinase buffer containing 50 mM Tris pH 8.0, 10 mM MgCl2, 1 mM DTT, and 0.1 mM sodium orthovanadate. The substrate used in these reactions was a biotinylated peptide derived from Histone H1 (from Amersham, UK). The substrate was thawed on ice and diluted to 2 μM in kinase buffer. Compounds were diluted in 10% DMSO to desirable concentrations. For each kinase reaction, 20 μl of the 50 µg/ml enzyme solution (1 μg of enzyme) and 20 μl of the 2 μM substrate solution were mixed, then combined with 10 μl of diluted compound in each well for testing. The kinase reaction was started by addition of 50 μl of 2 μM ATP and 0.1 μCi of 33P-ATP (from Amersham, UK). The reaction was allowed to run for 1 hour at room temperature. The reaction was stopped by adding 200 μl of stop buffer containing 0.1% Triton X-100, 1 mM ATP, 5 mM EDTA, and 5 mg/ml streptavidine coated SPA beads (from Amersham, UK) for 15 minutes. The SPA beads were then captured onto a 96-well GF/B filter plate (Packard/Perkin Elmer Life Sciences) using a Filtermate universal harvester (Packard/Perkin Elmer Life Sciences.). Non-specific signals were eliminated by washing the beads twice with 2M NaCl then twice with 2 M NaCl with 1% phosphoric acid. The radioactive signal was then measured using a TopCount 96 well liquid scintillation counter (from Packard/Perkin Elmer Life Sciences).
as §1

Cc1cc(Nc2nccn3c(-c4cnn(C)c4)cnc23)sn1
IC50 (recombinant His-CHK1): 54 nM

Cc1cc(Nc2nc(C3=CCCNC3)cn3c(-c4cnn(C)c4)cnc23)sc1S(=O)(=O)NC1CC1 [drawing 1473]
IC50 (recombinant His-CHK1): 7 nM | IC50 (Cyclin E/CDK2; read-out: CDK2 IC50): 3210 nM

Cc1cc(Nc2nc(C3=CCCNC3)cn3c(-c4cnn(C)c4)cnc23)sc1S(=O)(=O)N(C)C1CC1
IC50 (recombinant His-CHK1): 18 nM | IC50 (Cyclin E/CDK2; read-out: CDK2 IC50): 13100 nM

Cc1cc(Nc2nc(SC3CCNC3)cn3c(-c4cnn(C)c4)cnc23)sn1 (stereo not shown)
IC50 (recombinant His-CHK1): 19 nM

Cn1cc(-c2cnc3c(Nc4ccns4)nc(CN)cn23)cn1
IC50 (recombinant His-CHK1): 17 nM | IC50 (Cyclin E/CDK2; read-out: CDK2 IC50): 550 nM

Cc1cc(Nc2nc(C3=CCCNC3)cn3c(-c4cnn(C)c4)cnc23)sc1S(=O)(=O)NCC1CC1
IC50 (recombinant His-CHK1): 8 nM | IC50 (Cyclin E/CDK2; read-out: CDK2 IC50): 2140 nM

Cn1cc(-c2cnc3c(Nc4ccc(-n5ccnc5)cc4)nc(C4=CCNCC4)cn23)cn1
IC50 (recombinant His-CHK1): 181 nM | IC50 (Cyclin E/CDK2; CDK2 IC50): 19400 nM

Cc1cc(Nc2nc(CCN)cn3c(-c4cnn(C)c4)cnc23)sc1S(=O)(=O)N(C)C
IC50 (recombinant His-CHK1): 14 nM

Cc1cc(Nc2nc(CCN)cn3c(-c4cnn(C)c4)cnc23)sn1
IC50 (recombinant His-CHK1): 7 nM | IC50 (Cyclin E/CDK2; read-out: CDK2 IC50): 5940 nM

Cc1cc(Nc2nc(C3=CCCNC3)cn3c(-c4cnn(C)c4)cnc23)sc1C(=O)N(C)C
IC50 (recombinant His-CHK1): 16 nM | IC50 (Cyclin E/CDK2; read-out: CDK2 IC50): 24100 nM

Cc1cc(Nc2nc(CC3CCNC3)cn3c(-c4cnn(C)c4)cnc23)sn1 (stereo not shown)
IC50 (recombinant His-CHK1): 7 nM | IC50 (Cyclin E/CDK2; read-out: CDK2 IC50): 607 nM

CNCCc1cn2c(-c3cnn(C)c3)cnc2c(Nc2cc(C)ns2)n1
IC50 (recombinant His-CHK1): 13 nM | IC50 (Cyclin E/CDK2; read-out: CDK2 IC50): 11400 nM

Cn1cc(-c2cnc3c(Nc4sncc4C(C)(C)C)nc(C4=CCCNC4)cn23)cn1
IC50 (recombinant His-CHK1): 16 nM | IC50 (Cyclin E/CDK2; read-out: CDK2 IC50): 13700 nM

Cc1cc(Nc2nc(C3=CCCNC3)cn3c(-c4cnn(C)c4)cnc23)sc1S(=O)(=O)N1CCCC1
IC50 (recombinant His-CHK1): 6 nM | IC50 (Cyclin E/CDK2; read-out: CDK2 IC50): 5170 nM

CC(C)c1cnsc1Nc1nc(CCN)cn2c(-c3cnn(C)c3)cnc12
IC50 (recombinant His-CHK1): 6380 nM | IC50 (Cyclin E/CDK2; read-out: CDK2 IC50): 13 nM

CNCCCc1cn2c(-c3cnn(C)c3)cnc2c(Nc2sncc2C)n1
IC50 (recombinant His-CHK1): 8 nM | IC50 (Cyclin E/CDK2; read-out: CDK2 IC50): 5770 nM

Cc1cc(Nc2nc(CCN)cn3c(-c4cnn(C)c4)cnc23)sc1C(N)=O
IC50 (recombinant His-CHK1): 19 nM | IC50 (Cyclin E/CDK2; read-out: CDK2 IC50): 17900 nM

Cn1cc(-c2cnc3c(Nc4ccc5ncccc5c4)nccn23)cn1
IC50 (recombinant His-CHK1): 492 nM

Cc1cc(Nc2nc(C3=CCCNC3)cn3c(-c4cnn(C)c4)cnc23)sc1S(=O)(=O)N(C)C
IC50 (recombinant His-CHK1): 7 nM | IC50 (Cyclin E/CDK2; read-out: CDK2 IC50): 5200 nM

Cc1cc(Nc2nc(C3=CCCNC3)cn3c(-c4cnn(C)c4)cnc23)sc1C(N)=O
IC50 (recombinant His-CHK1): 23 nM | IC50 (Cyclin E/CDK2; read-out: CDK2 IC50): 16200 nM

Cc1cc(Nc2nc(C3=CCCNC3)cn3c(-c4cnn(C)c4)cnc23)sc1S(C)(=O)=O
IC50 (recombinant His-CHK1): 8 nM | IC50 (Cyclin E/CDK2; read-out: CDK2 IC50): 11600 nM

CC(C)c1cnsc1Nc1nc(C2=CCCNC2)cn2c(-c3cnn(C)c3)cnc12
IC50 (recombinant His-CHK1): 6 nM | IC50 (Cyclin E/CDK2; read-out: CDK2 IC50): 4210 nM

Cc1cc(Nc2nc(CC3CCNC3)cn3c(-c4cnn(C)c4)cnc23)sc1S(=O)(=O)N(C)C (stereo not shown)
IC50 (recombinant His-CHK1): 8 nM | IC50 (Cyclin E/CDK2; read-out: CDK2 IC50): 983 nM

CCNC(=O)c1sc(Nc2nc(C3=CCCNC3)cn3c(-c4cnn(C)c4)cnc23)cc1C
IC50 (recombinant His-CHK1): 15 nM

Cc1ncc(Nc2nc(C3=CCCNC3)cn3c(-c4cnn(C)c4)cnc23)s1
IC50 (recombinant His-CHK1): 8 nM | IC50 (Cyclin E/CDK2; read-out: CDK2 IC50): 4630 nM

Cc1cc(Nc2nc(C3=CCCNC3)cn3c(-c4cnn(C)c4)cnc23)sc1S(=O)(=O)N1CCOCC1
IC50 (recombinant His-CHK1): 7 nM | IC50 (Cyclin E/CDK2; read-out: CDK2 IC50): 5950 nM

Cn1cc(-c2cnc3c(Nc4sncc4C(C)(C)C)nc(CCN)cn23)cn1
IC50 (recombinant His-CHK1): 11 nM | IC50 (Cyclin E/CDK2; read-out: CDK2 IC50): 14100 nM

Cc1cc(Nc2nc(C3=CCCNC3)cn3c(-c4cnn(C)c4)cnc23)sc1S(=O)(=O)N1CCC1
IC50 (recombinant His-CHK1): 12 nM

Cn1cc(-c2cnc3c(Nc4sncc4C4CCNC4)nccn23)cn1 (stereo not shown)
IC50 (recombinant His-CHK1): 23 nM

Cc1cc(Nc2nc(C3CCCNC3)cn3c(-c4cnn(C)c4)cnc23)sc1S(=O)(=O)N(C)C (stereo not shown)
IC50 (recombinant His-CHK1): 12 nM

Cc1cc(Nc2nc(CCNCC3CC3)cn3c(-c4cnn(C)c4)cnc23)sc1S(=O)(=O)N(C)C
IC50 (recombinant His-CHK1): 10 nM

CCNS(=O)(=O)c1sc(Nc2nc(C3=CCCNC3)cn3c(-c4cnn(C)c4)cnc23)cc1C
IC50 (recombinant His-CHK1): 10 nM

Cn1cc(-c2cnc3c(Nc4sncc4C4CCN(S(C)(=O)=O)C4)nc(CCCN)cn23)cn1 (stereo not shown)
IC50 (recombinant His-CHK1): 8 nM
